“Also recorded” adds a separate entry of the source.
How the values were obtained:
[1] = target: SARS-CoV-2 RNA polymerase (RdRp) (Severe acute respiratory syndrome coronavirus 2, UniProt P0DTD1); assay: RdRp inhibition assay; format: biochemical; details: Figure 4; result in words
VeroE6/TMPRSS2 cells = details: at a concentration of 100 μM; result in words
[2] = system: 3-chymotrypsin-like (3CL) protease of SARS-CoV-2; details: result in words; cited from earlier work
SARS-CoV-2 = format: cell-based; details: for anti-SARS-CoV-2 activity (library screening): tetrazolium dye method, result in words
neural stem cells = details: result in words; cited from earlier work

## CC1=C(C/C=C(\C)CC/C=C(\C)Cn2cnc3c(Cl)ncnc32)C(=O)c2ccccc2C1=O [Compound 16, 2-((2E,6E)-8-(6-Chloro-9H-purin-9-yl)-3,7-dimethylocta-2,6-dien-1-yl)-3-methylnaphthalene-1,4-dione]
[1]
  Inhibitory effect on SARS-CoV-2 RdRp activity: inhibited RdRp in a concentration-dependent manner
VeroE6/TMPRSS2 cells
  toxicity: no toxicity

## CC1=CC(=O)c2ccccc2C1=O [vitamin K3, menadione]
[2]
  inhibition of 3CL protease of SARS-CoV-2: inhibit

## CC1=C(C/C=C(\C)CC/C=C(\C)Cc2cccc(C)c2)C(=O)c2ccccc2C1=O [Compound 1]
SARS-CoV-2
  Microscopic observation of cell survival: survived as well as control A
  anti-SARS-CoV-2 activity (library screening): anti-SARS-CoV-2 activity was observed
[1]
  Inhibitory effect on SARS-CoV-2 RdRp activity: inhibited RdRp in a concentration-dependent manner
Neural stem cells
  neuronal differentiation activity: higher neuronal differentiation activity than natural vitamin K homologues; also recorded: induce neural stem cells to differentiate into neurons

## CC1=C(C/C=C(\C)CC/C=C(\C)Cc2cccc3ccccc23)C(=O)c2ccccc2C1=O [Compound 2]
SARS-CoV-2
  anti-SARS-CoV-2 activity (library screening): anti-SARS-CoV-2 activity was observed
[1]
  Inhibitory effect on SARS-CoV-2 RdRp activity: inhibited RdRp in a concentration-dependent manner
Neural stem cells
  neuronal differentiation activity: induce neural stem cells to differentiate into neurons

— article PMC10652723 (ACS Omega, 2023)
